The numbers were not newly measured in publication PMC5879685 (Proceedings of the National Academy of Sciences of the …, 2018), which cites them from elsewhere.

In the case of `Nc1nc2c(ncn2[C@@H]2O[C@@H]3COP(O)(=S)O[C@H]3[C@H]2O)c(=O)[nH]1` (single isomer, unassigned) [B, Guanosine-3′,5′-cyclic monophosphorothioate, RP-isomer], the “Effect on CNGC” value with CNGC was “+”. In the data set on PKG, the “Effect on PKG” value is recorded as “−”.

`Nc1nc2c(nc(Br)n2[C@@H]2O[C@@H]3COP(O)(=S)O[C@H]3[C@H]2O)c(=O)[nH]1` (single isomer, unassigned) [C, 8-bromoguanosine-3′,5′-cyclic monophosphorothioate, RP-isomer]: in the data set with CNGC, the “Effect on CNGC” value is on record as “+”. The “Effect on PKG” value in the data set on PKG is recorded as “−”.

Turning to `Nc1nc2c(ncn2[C@@H]2O[C@@H]3COP(=O)(O)O[C@H]3[C@H]2O)c(=O)[nH]1` [Compound A, Guanosine-3′,5′-cyclic monophosphate], in the data set with CNGC, the “Effect on CNGC” value is on record as “+”. In the data set on PKG, the “Effect on PKG” value was “+”.
